Assay results: patent publication EP3046573B1, “AMYLIN ANALOGUES” (Zealand Pharma A/S, priority 2013, dated 2015)
Read-outs that look alike come from different tables or passages of the source. Numbered stars: 1 amine (or outer) side, 2 acyl side, 3 side chain; on linkers, the order of the positions; unused ones are H or OH. Bridge positions count the residues as written; N and C are the ends. Square brackets hold non-standard residues; d marks the D form. Peptide text beside a SMILES is read from it. * marks the point of attachment. C20 diacid = O=C(O)CCCCCCCCCCCCCCCCCCC(=O)*; γGlu = O=C(O)[C@H](CCC(=O)[*:2])N[*:1]; NMeI = CC[C@H](C)[C@H](NC)C(=O)O; Dap = NC[C@H](N)C(=O)O; Sar = CNCC(=O)O

Key:
[1] = Solubility assessment (turbidity absorbance at 325 nm); format: physicochemical; conditions: stock 2 mg/ml diluted 1:1, ambient temperature (typically 25°C), n=1; for Solubility, Acetate buffer pH 4: 100 mM acetate buffer pH 4.0; for Solubility, Acetate buffer pH 5: 100 mM acetate buffer pH 5.0; for Solubility, Histidine buffer pH 6: 100 mM histidine buffer pH 6.0; for Solubility, Histidine buffer pH 7: 100 mM histidine buffer pH 7.0; for Solubility, Phosphate buffer pH 6: 100 mM phosphate buffer pH 6.0; for Solubility, Phosphate buffer pH 7: 100 mM phosphate buffer pH 7.0; for Solubility, Phosphate buffer pH 7.5: 100 mM phosphate buffer pH7.5
Method in brief: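 Turbidimetric screen across pH 4.0–7.5 in 100 mM acetate, histidine and phosphate buffers. A 2 mg/ml peptide stock (pH 2.5) was diluted 1:1 into each, then A325 measured at ambient temperature; values ≤ 0.02 AU denoted solubility of 1 mg/ml or more.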

[2] = target: T1, human calcitonin receptor (hCTR2) (Homo sapiens, UniProt P30988); experiment: hCTR2 assay: induction of cAMP (AlphaScreen cAMP Assay kit) in COS7 cells expressing hCTR2; format: cell-based
T1 construct: expressed in transfected cells
T1 sequence (P30988 25-474): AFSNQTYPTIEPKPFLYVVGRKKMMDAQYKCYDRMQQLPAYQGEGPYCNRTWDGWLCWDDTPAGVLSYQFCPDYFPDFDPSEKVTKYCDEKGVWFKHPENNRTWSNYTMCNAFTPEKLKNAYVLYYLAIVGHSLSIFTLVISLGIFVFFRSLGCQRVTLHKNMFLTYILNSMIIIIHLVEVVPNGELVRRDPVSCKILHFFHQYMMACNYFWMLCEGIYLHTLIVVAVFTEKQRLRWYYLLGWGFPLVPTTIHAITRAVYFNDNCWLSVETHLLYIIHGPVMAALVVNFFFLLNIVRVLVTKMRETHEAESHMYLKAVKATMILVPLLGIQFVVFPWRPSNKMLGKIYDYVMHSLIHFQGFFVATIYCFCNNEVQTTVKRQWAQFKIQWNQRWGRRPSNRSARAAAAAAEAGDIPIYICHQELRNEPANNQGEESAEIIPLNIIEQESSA
Method in brief: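 cAMP induction was measured by AlphaScreen in COS7 cells stably expressing hCTR2 without RAMPs, after 15 min at 37° C with increasing peptide concentrations, 100 µM IBMX and 0.1% casein (Tyrode, pH 7.4). A 4-parameter logistic fit gave EC50 and % efficacy versus pramlintide.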

[3] = cAMP induction in COS7 cells expressing hCTR2, average of a minimum of 3 determinations, read-out: hCTR2 EC50

SMILES | Solubility, Acetate buffer pH 4 [1] | Solubility, Acetate buffer pH 5 [1] | Solubility, Histidine buffer pH 6 [1] | Solubility, Histidine buffer pH 7 [1] | Solubility, Phosphate buffer pH 6 [1] | Solubility, Phosphate buffer pH 7 [1] | Solubility, Phosphate buffer pH 7.5 [1] | EC50 [2] [nM] | EC50 [2, 3] [nM]
CC[C@H](C)[C@@H](C(=O)N[C@@H](CC(C)C)C(=O)N[C@H](CO)C(=O)N[C@@H](CO)C(=O)N[C@H](C(=O)N[C@@H](CC(N)=O)C(=O)N[C@H](C(=O)NCC(=O)N[C@@H](CO)C(=O)N[C@@H](CC(N)=O)C(=O)N[C@H](C(=O)N1CCC[C@H]1C(N)=O)[C@@H](C)O)C(C)C)[C@@H](C)O)N(C)C(=O)[C@H](C)NC(=O)CN(C)C(=O)[C@H](Cc1ccccc1)NC(=O)[C@H](CC(N)=O)NC(=O)[C@H](CC(N)=O)NC(=O)[C@H](CO)NC(=O)[C@H](CO)NC(=O)[C@H](CCCNC(=N)N)NC(=O)[C@H](Cc1c[nH]cn1)NC(=O)[C@H](CC(C)C)NC(=O)[C@H](Cc1ccccc1)NC(=O)[C@H](CCC(=O)O)NC(=O)[C@H](C)NC(=O)[C@H](CC(C)C)NC(=O)[C@H](CCCNC(=N)N)NC(=O)[C@H](CCC(N)=O)NC(=O)[C@@H](NC(=O)[C@H](C)NC(=O)[C@@H]1CSSC[C@H](NC(=O)[C@H](CCCCN)NC(=O)CC[C@H](NC(=O)CCCCCCCCCCCCCCCCCCC(=O)O)C(=O)O)C(=O)N[C@@H](CC(N)=O)C(=O)N[C@@H]([C@@H](C)O)C(=O)N[C@@H](C)C(=O)N[C@@H]([C@@H](C)O)C(=O)N1)[C@@H](C)O [Compound 68, [19CD]-isoGlu-KC()NTATC()ATQRLAEFLHRSSNNF-Gly(Me)-A-Ile(Me)-L-DSer-STNVGSNTP-NH2] ({C20 diacid-γGlu}-KCNTATCATQRLAEFLHRSSNNF[Sar]A[NMeI]L[dS]STNVGSNTP-NH2; disulfide 2-7) | SS (SS indicates solubility ≥ 1mg/ml) | SS (SS indicates solubility ≥ 1mg/ml) | SS (SS indicates solubility ≥ 1mg/ml) | SS (SS indicates solubility ≥ 1mg/ml) | SS (SS indicates solubility ≥ 1mg/ml) | SS (SS indicates solubility ≥ 1mg/ml) | SS (SS indicates solubility ≥ 1mg/ml) | 0.096 | –
CC[C@H](C)[C@@H](C(=O)N[C@@H](CC(C)C)C(=O)N[C@@H](CO)C(=O)N[C@@H](CO)C(=O)N[C@H](C(=O)N[C@@H](CC(N)=O)C(=O)N[C@H](C(=O)NCC(=O)N[C@@H](CO)C(=O)N[C@@H](CC(N)=O)C(=O)N[C@H](C(=O)N1CCC[C@H]1C(N)=O)[C@@H](C)O)C(C)C)[C@@H](C)O)N(C)C(=O)CN(C)C(=O)[C@H](Cc1ccccc1)NC(=O)[C@H](CC(N)=O)NC(=O)[C@H](CC(N)=O)NC(=O)[C@H](CO)NC(=O)[C@H](CO)NC(=O)[C@H](Cc1c[nH]cn1)NC(=O)[C@H](Cc1c[nH]cn1)NC(=O)[C@H](CC(C)C)NC(=O)[C@H](Cc1ccccc1)NC(=O)[C@H](CCC(=O)O)NC(=O)[C@H](C)NC(=O)[C@H](CC(C)C)NC(=O)[C@H](CCCNC(=N)N)NC(=O)[C@H](CCC(N)=O)NC(=O)[C@@H](NC(=O)[C@H](C)NC(=O)[C@@H]1CSSC[C@H](NC(=O)[C@H](CN)NC(=O)CC[C@H](NC(=O)CCCCCCCCCCCCCCCCCCC(=O)O)C(=O)O)C(=O)N[C@@H](CC(N)=O)C(=O)N[C@@H]([C@@H](C)O)C(=O)N[C@@H](C)C(=O)N[C@@H]([C@@H](C)O)C(=O)N1)[C@@H](C)O [Compound 69, [19CD]-isoGlu-Dap-C()NTATC()ATQRLAEFLHHSSNNF-Gly(Me)-Ile(Me)-LSSTNVGSNTP-NH2] ({C20 diacid-γGlu}-[Dap]CNTATCATQRLAEFLHHSSNNF[Sar][NMeI]LSSTNVGSNTP-NH2; disulfide 2-7) | SS (SS indicates solubility ≥ 1mg/ml) | SS (SS indicates solubility ≥ 1mg/ml) | SS (SS indicates solubility ≥ 1mg/ml) | SS (SS indicates solubility ≥ 1mg/ml) | SS (SS indicates solubility ≥ 1mg/ml) | SS (SS indicates solubility ≥ 1mg/ml) | SS (SS indicates solubility ≥ 1mg/ml) | – | 0.24
CC[C@H](C)[C@@H](C(=O)N[C@@H](CC(C)C)C(=O)N[C@H](CO)C(=O)N[C@@H](CO)C(=O)N[C@H](C(=O)N[C@@H](CC(N)=O)C(=O)N[C@H](C(=O)NCC(=O)N[C@@H](CO)C(=O)N[C@@H](CC(N)=O)C(=O)N[C@H](C(=O)N1CCC[C@H]1C(N)=O)[C@@H](C)O)C(C)C)[C@@H](C)O)N(C)C(=O)CN(C)C(=O)[C@H](Cc1ccccc1)NC(=O)[C@H](CC(N)=O)NC(=O)[C@H](CC(N)=O)NC(=O)[C@H](CO)NC(=O)[C@H](CO)NC(=O)[C@H](CCCNC(=N)N)NC(=O)[C@H](Cc1c[nH]cn1)NC(=O)[C@H](CC(C)C)NC(=O)[C@H](Cc1ccccc1)NC(=O)[C@H](CCC(=O)O)NC(=O)[C@H](C)NC(=O)[C@H](CC(C)C)NC(=O)[C@H](CCCNC(=N)N)NC(=O)[C@H](CCC(N)=O)NC(=O)[C@@H](NC(=O)[C@H](C)NC(=O)[C@@H]1CSSC[C@H](NC(=O)[C@H](CCCCN)NC(=O)CC[C@H](NC(=O)CCCCCCCCCCCCCCCCCCC(=O)O)C(=O)O)C(=O)N[C@@H](CC(N)=O)C(=O)N[C@@H]([C@@H](C)O)C(=O)N[C@@H](C)C(=O)N[C@@H]([C@@H](C)O)C(=O)N1)[C@@H](C)O [Compound 70, [19CD]-isoGlu-KC()NTATC()ATQRLAEFLHRSSNNF-Gly(Me)-Ile(Me)-L-DSer-STNVGSNTP-NH2] ({C20 diacid-γGlu}-KCNTATCATQRLAEFLHRSSNNF[Sar][NMeI]L[dS]STNVGSNTP-NH2; disulfide 2-7) | SS (SS indicates solubility ≥ 1mg/ml) | SS (SS indicates solubility ≥ 1mg/ml) | SS (SS indicates solubility ≥ 1mg/ml) | SS (SS indicates solubility ≥ 1mg/ml) | SS (SS indicates solubility ≥ 1mg/ml) | SS (SS indicates solubility ≥ 1mg/ml) | SS (SS indicates solubility ≥ 1mg/ml) | – | 0.11
CC[C@H](C)[C@@H](C(=O)N[C@@H](CC(C)C)C(=O)N[C@@H](CO)C(=O)N[C@@H](CO)C(=O)N[C@H](C(=O)N[C@@H](CC(N)=O)C(=O)N[C@H](C(=O)NCC(=O)N[C@@H](CO)C(=O)N[C@@H](CC(N)=O)C(=O)N[C@H](C(=O)N1CCC[C@H]1C(N)=O)[C@@H](C)O)C(C)C)[C@@H](C)O)N(C)C(=O)[C@H](C)NC(=O)CN(C)C(=O)[C@@H](Cc1ccccc1)NC(=O)[C@H](CC(N)=O)NC(=O)[C@H](CC(N)=O)NC(=O)[C@H](CO)NC(=O)[C@H](CO)NC(=O)[C@H](CCCNC(=N)N)NC(=O)[C@H](Cc1c[nH]cn1)NC(=O)[C@H](CC(C)C)NC(=O)[C@H](Cc1ccccc1)NC(=O)[C@H](CCC(=O)O)NC(=O)[C@H](C)NC(=O)[C@H](CC(C)C)NC(=O)[C@H](CCCNC(=N)N)NC(=O)[C@H](CCC(N)=O)NC(=O)[C@@H](NC(=O)[C@H](C)NC(=O)[C@@H]1CSSC[C@H](NC(=O)[C@H](CCCCN)NC(=O)CC[C@H](NC(=O)CCCCCCCCCCCCCCCCCCC(=O)O)C(=O)O)C(=O)N[C@@H](CC(N)=O)C(=O)N[C@@H]([C@@H](C)O)C(=O)N[C@@H](C)C(=O)N[C@@H]([C@@H](C)O)C(=O)N1)[C@@H](C)O [Compound 71, [19CD]-isoGlu-KC()NTATC()ATQRLAEFLHRSSNN-DPhe-Gly(Me)-A-Ile(Me)-LSSTNVGSNTP-NH2] ({C20 diacid-γGlu}-KCNTATCATQRLAEFLHRSSNN[dF][Sar]A[NMeI]LSSTNVGSNTP-NH2; disulfide 2-7) | SS (SS indicates solubility ≥ 1mg/ml) | SS (SS indicates solubility ≥ 1mg/ml) | SS (SS indicates solubility ≥ 1mg/ml) | SS (SS indicates solubility ≥ 1mg/ml) | SS (SS indicates solubility ≥ 1mg/ml) | SS (SS indicates solubility ≥ 1mg/ml) | SS (SS indicates solubility ≥ 1mg/ml) | 0.068 | –
